Assay: Solubility of the compound in water
Assay type: physicochemical
Settings: room temperature (25° C.)
Experimental: 23.5 g of perfluoro(3-dibutylaminopropionic acid) was neutralized with 1.5 g of calcium hydroxide in a methanol/water mixed solution. The precipitated crystals were separated by filtration, and dried at 100° C., whereby 23.5 g of perfluoro(3-dibutylaminopropionic acid) calcium represented by the following Formula (378) was obtained (yield of 97%). The solubility of the present compound in water at room temperature (25° C.) was 2 [g/100 g-H2O].

Structure (SMILES): O=C(O)C(F)(F)C(F)(F)N(C(F)(F)C(F)(F)C(F)(F)C(F)(F)F)C(F)(F)C(F)(F)C(F)(F)C(F)(F)F.[Ca] [Synthesis Example 3, perfluoro(3-dibutylaminopropionic acid) calcium]
- solubility of the present compound in water: 2 g/100 g-H2O

From patent publication US10364360B2, “Surface coating material, coating film, and hydrophilic oil repellent member” (MITSUBISHI MATERIALS CORPORATION, priority 2014, dated 2019)
